The source of these data is patent US20240277711A1, “COMPOUNDS FOR THE TREATMENT OF GLIOBLASTOMA” (Merck Patent GmbH, priority 2021, published 2024).

The test system of assay [1] is mouse glioma cell lines. The assay can be described thus: Acute growth inhibition assay (MTT) in mouse glioma cell lines. Format: cell-based. To be noted: concentrations up to 1 μM.
For assay [2], the system named is mouse glioma cell lines. Briefly: Clonogenic survival (clonogenicity) assay in mouse glioma cell lines. In kind it is cell-based. To be noted: concentrations up to 1 μM.
For a further assay, the system named is glioma cells. Briefly: Sensitization to irradiation in vitro (clonogenic survival). In kind it is cell-based, mouse.
Assay [3] relates to murine glioma cell invasiveness. Briefly: Murine glioma cell invasiveness in vitro without or with irradiation. Conditions: without or with irradiation (2 Gy, 8 Gy). In kind it is cell-based, mouse. The text has this: Next, we evaluated the motogenic activity of HGF/MET in response to irradiation in vitro. Low-dose irradiation (2 Gy) increased invasiveness in SMA-540 and SMA-560 cells whereas high-dose irradiation (8 Gy) reduced invasiveness in SMA-497 and SMA-560 cells.

Assay [4] has as its system SMA-560 gliomas. Briefly: Orthotopic syngeneic SMA-560 glioma model in vivo (survival, histology). More on the design: species or system mouse. As for the experimental part: B. Kaplan-Meier survival curve. C. […] Sections were counterstained with hematoxylin (blue).
Sections (8 μm thick) of tumor-bearing cryopreserved brains were prepared. The mean tumor size was determined by the largest tumor area in the horizontal plane on hematoxylin and eosin (H&E)-stained sections by multiplying the longest perpendicular diameters from a low-magnification (2.5×) image. Brain sections were immunostained with Ki-67 antibody (clone SP6, Epitomics, Burlingame, CA), anti-mouse CD31 antibody (clone MEC 13.3, BD Pharmingen, Franklin Lakes, NJ), anti-CD45 antibody (clone 30-F11; BioLegend), anti-CD3 (clone 17A2; BD Biosciences, San Jose, CA) or anti-CD11b (clone M1/70; BD Biosciences) and histofine simple stain mouse max pro anti-rabbit secondary antibody (Nichirei Biosciences, Tokyo, Japan) to determine proliferation. Anti-rat N-Histofine Simple Stain Mouse MAX PO (Nichirei Biosciences) and DAB chromogen were used to stain blood vessels. The percentage of Ki-67-positive tumor nuclei and the mean number of CD31-positive intratumoral vessels per high power field (×40 objective) were calculated using three randomly selected different microscopic fields of each section for three 3 mice per group. Alternatively, DAB-positive signals were quantified using the ImageJ software (https://imagej.nih.gov/) (Crowe and Yue, 2019).
(§1) All in vitro and in vivo experiments reported here were performed in biological replicates, i.e., in independent experiments and with different passage numbers of cell lines. Statistical significance was assessed by two-sided unpaired t-test or two-way ANOVA with Bonferroni post-testing (GraphPad Prism). Tumor size was analyzed using the Mann-Whitney U non-parametric test. Survival was analyzed using a Kaplan-Meier survival plot followed by a log-rank (Mantel-Cox) test. Differences were considered statistically significant when the p value was below 0.05.

For another assay, the system named is mouse cytokines. Briefly: Proteome profiler cytokine array of SMA-560 tumor lysates ex vivo. Format: in vivo. The procedure: In A, raw data are expressed as pixel density measured by Image J. In B, fold-changes indicate down-regulation (left) or up-regulation (right) versus control tumors. A difference down or up of 2-fold versus control was used as cut-off to assign a target to any group.
For the simultaneous determination of relative levels of mouse cytokines in vivo, the Mouse XL Cytokine Array Kit from R&D Systems was used (ARY028, Minneapolis, MN). Tissue lysates were prepared by electric homogenizer in ice-cold lysis buffer and supplemented with protease inhibitor cocktail, followed by centrifugation to remove cellular debris; 150 μg protein was used for each tumor sample and nitrocellulose membrane (control, monotherapies, combination therapy). To compare the proportion of protein levels in each tumor specimen, the quantification of pixel density of each spot of the array was performed using Image J (version 1.32j) software (National Institutes of Health, Bethesda, MD, http://rsb.info.nih.gov/ij/).

The test system of assay [5] is GL-261 glioma. Briefly: Orthotopic syngeneic GL-261 glioma model in wildtype mice. In kind it is in vivo, mouse. The procedure:
(§2) Kaplan-Meier survival curves are shown. B, C. […] B. Kaplan-Meier survival curves were analyzed via log-rank test. C. Mice surviving in (B) were re-challenged after 13 weeks after initial tumor cell injection with GL-261 cell implantation into the contralateral hemisphere. Naïve mice implanted with GL-261 cells were used as controls. Kaplan-Meier survival curves are shown. D, E. GL-261 met knock-out cells were intracranially implanted into wildtype C57/B16 mice (D) or GL-261 wildtype cells were intracranially implanted into C57/B16 Rag1−/− mice (E). […] F. Analysis of median survival between treatment groups.
as §1

The test system of assay [6] is SMA-560 gliomas. Briefly: SMA-560 glioma in immunodeficient Rag1−/− mice. Format: in vivo, mouse. To be noted: tepotinib 100 mg/kg daily + 10 Gy.
For assay [7], the system named is GL-261 glioma. Briefly: GL-261 glioma in Rag1−/− mice. To be noted: tepotinib + 10 Gy. Format: in vivo, mouse. As for the experimental part:
as §2, §1

Assay [8] relates to GL-261 met knock-out cells. Briefly: GL-261 met knock-out glioma in wildtype mice. To be noted: MET disrupted in tumor, tepotinib + 10 Gy. Format: in vivo, mouse. As for the experimental part:
as §2
Knockout clones were generated as described (Ran et al., 2013; Machado et al., 2019). Briefly, two MET-specific guide RNAs (5′-[…]-3′ and 5′-[…]-3′) were cloned into pSpCas9(BB)-2A-GFP and lipofectamine (Thermo) was used to co-transfect both plasmids. […]
All in vitro and in vivo experiments reported here were performed in biological replicates, i.e., in independent experiments and with different passage numbers of cell lines. Statistical significance was assessed by two-sided unpaired t-test or two-way ANOVA with Bonferroni post-testing (GraphPad Prism). Tumor size was analyzed using the Mann-Whitney U non-parametric test. Survival was analyzed using a Kaplan-Meier survival plot followed by a log-rank (Mantel-Cox) test. […]

In assay [9] the test system is ligand-independent Hs746T tumors. To be noted: before tumor became resistant and progressed; cited from earlier work.
Assay [10] deals with HGF-dependent U87MG tumors. To be noted: before tumor became resistant and progressed; cited from earlier work.
Another assay relates to glioblastoma. To be noted: in vivo; cited from earlier work.
Setting [11] is: combination group (tepotinib + radiotherapy).

For the molecule `CN1CCC(COc2cnc(-c3cccc(Cn4nc(-c5cccc(C#N)c5)ccc4=O)c3)nc2)CC1` [tepotinib, 3-(1-{3-[5-(1-methyl-piperidin-4-ylmethoxy)-pyrimidin-2-yl]-benzyl}-6-oxo-1,6-dihydro-pyridazin-3-yl)-benzonitrile], the acute growth inhibition result in the assay on mouse glioma cell lines [1] is “resistant to inhibitory effects of tepotinib”. In addition, the clonogenicity entry with mouse glioma cell lines [2] is “resistant to inhibitory effects of tepotinib”. In addition, the “sensitization to inhibitory effects of irradiation in vitro” value in the assay on glioma cells (concentrations known to inhibit MET phosphorylation (100 nM)) is on record as “failed to sensitize glioma cells to the inhibitory effects of irradiation”. Besides, the “sensitization to irradiation in presence of exogenous HGF” value in the assay on glioma cells (with exogenous HGF (50 ng/ml)) was “no sensitization to irradiation by tepotinib became apparent”. Besides, the invasiveness entry in [3] was “suppressed invasiveness in all cell lines without or with irradiation, except in low dose-irradiated SMA-540 cells”. Besides, the “reduction in CD31 immunoreactivity” value in the assay with SMA-560 gliomas [4] (combination arm (tepotinib + radiotherapy)) is listed as 2.8 fold; in the assay with SMA-560 gliomas [4] (monotherapy arm), 1.8 fold. Besides, in the assay with SMA-560 gliomas [4] (setting [11]), the Ki-67-positive cells result was “strong decrease of Ki-67-positive cells”. Moreover, the “mice alive and free from tumor at day 80” value is listed as “three” in the assay with SMA-560 gliomas [4] (setting [11]) and “one” with SMA-560 gliomas [4] (tepotinib group). Moreover, the survival result in the assay on SMA-560 gliomas [4] (combination with radiotherapy (single dose 12 Gy)) is “around 60 days”; with SMA-560 gliomas [4] (monotherapy), “around 20 days”; with GL-261 glioma [5] (combination therapy (tepotinib + 10 Gy), wildtype mice) it was “prominent survival prolongation”. In addition, in the assay with SMA-560 gliomas [4] (monotherapy group), the “percentage of Ki-67-stained nuclei” value is listed as “remained unaffected”. For the same molecule, the effect on survival entry with SMA-560 gliomas [4] (tepotinib alone, 100 mg/kg daily) is “Neither tepotinib alone nor radiotherapy alone had a significant effect on survival”. Also, the “irradiation-induced cytokines (VEGF, ICAM-1, MMP-2/-9, IL-1a, CXCL10 etc.)” value with mouse cytokines (combination with irradiation) is listed as “an induction upon irradiation that was attenuated by tepotinib”. In addition, the “cytokine levels in tumor tissue lysates” value with mouse cytokines (tepotinib monotherapy) is given as “reduced the levels of some cytokines”. The long-term survivors result with GL-261 glioma [5] (co-treatment group) is “approximately 50%”. In addition, the “outcome of rechallenge of long-term survivors with GL-261 cells” value in the assay on GL-261 glioma [5] (rechallenge at 90 days, followed another 50 days) is on record as “all 4 animals remained asymptomatic”. In the assay on SMA-560 gliomas [6], the “synergistic effect of combination therapy on survival” value is given as “strongly attenuated”. For the same molecule, the “synergy of irradiation with tepotinib” value is reported as “synergy with tepotinib was lost” with GL-261 glioma [7] and “synergy was also lost” in assay [8]. Moreover, the “tumor growth inhibition and regression” value in assay [9] was “Tumor growth inhibition and regression of tumors by tepotinib was temporarily observed”; in [10], “Tumor growth inhibition and regression of tumors by tepotinib was temporarily observed”.

In the case of AMG-102: HGF antibody, the “efficacy outcome in glioblastoma” value with glioblastoma was “negative outcomes”.

For onartuzumab: MET antibody, in the assay with glioblastoma, the “efficacy outcome in glioblastoma” value is given as “negative outcomes”.
